Results published in patent US20140171516A1, “GERANYLGERANYLACETONE FORMULATIONS” (COYOTE PHARMACEUTICALS, INC., priority 2012, published 2014).
Where two headings read alike, the source gives them in different places.

What was measured:
[1] = Intraocular GGA level, topical ocular versus oral systemic administration; assay type: in vivo; conditions: topical ocular composition of 5% GGA versus 200 mg/kg GGA by systemic administration orally
[2] = Rat ocular pharmacokinetics study, Cohort 1: geranylgeranyl acetone concentration in eyes after topical eye drops; assay type: in vivo; conditions: Sprague-Dawley, 0.25 mg/eye, 8 doses, average of 3 rats

Row | levels of geranylgeranyl acetone achieved intraocularly, topical versus oral [1] | concentration at 8 h ([2]; contralateral eye, contralateral eye concentration (ng/g in Table 7), read-out: 8 h contra AVE) [ng/g] | concentration at 8 h ([2]; treated (ipsilateral) eye, treated eye concentration (ng/g in Table 7), read-out: 8 h ispi AVE) [ng/g] | Compound
1 | about 5 fold |  |  | CC(=O)CCC=C(C)CC/C=C(\C)CC/C=C(\C)CCC=C(C)C (mixture of isomers) [GGA, Geranylgeranyl acetone]
2 |  | 2100 | 8770 | CC(=O)CC/C=C(\C)CC/C=C(\C)CC/C=C(\C)CCC=C(C)C [CNS-102, all-trans geranylgeranyl acetone]
